# Source: patent publication US9844536B2, “3-(1H-imidazo[4,5-C]pyridin-2-yl)-1H-pyrazolo[3,4-C]pyridine and therapeutic uses thereof” (Samumed, LLC, priority 2014, dated 2017)
# Experiments:
# Type in all cases: cell-based
# LL29 cells = assay: Inhibition of the fibrotic process (αSMA staining) in TGF-β1 treated primary human fibroblasts from IPF patients; details: Fibroblast, 96 h, TGF-β1 20 ng/mL, 4 days, dose-response 10 μM to 1.87 nM, read-out: Inhibition of fibrosis EC50
# Method in brief: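 LL29 IPF lung fibroblasts in 1% FBS were stimulated with TGF-β1 (20 ng/mL) and treated 4 days at 37 °C with compound (11 points, 10 μM–1.87 nM, 0.1% DMSO). The % αSMA-positive cells, imaged after excluding SYTOX-positive dead cells, was normalized to TGF-β1/DMSO wells. EC50 came from nonlinear regression over triplicates.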
# [1] = system: Wnt pathway (Sp5-Luc reporter, SW480 cells); assay: Sp5-Luc reporter gene screening assay for Wnt activity in SW480 colon carcinoma cells; details: Homo sapiens
# Method in brief: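 IC50 values come from variable-slope four-parameter fits of luciferase signal normalized to DMSO wells. Stable Sp5-Luc reporter SW480 colon carcinoma cells were exposed to compounds in a 3-fold dilution series (source plates from 10 mM stock) for forty-two hours at 37 °C.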
# [2] = system: primary human mesenchymal stem cells (hMSCs); assay: Chondrogenesis induction screen in primary human mesenchymal stem cells (nodules, Rhodamine B/Nile Red); details: 144 h, 6 days; for EC (100% TGF-beta3 activity): concentration required to induce chondrogenesis equivalent to TGF-β3 (10 ng/mL), read-out: Conc (nM) of 100% TGF-β3 activity; for Emax: relative to TGF-β3 (10 ng/mL) positive control, read-out: Max. Activity as % TGF-β3 activity
# Protocol: The above synthesized compounds were screened using primary human mesenchymal stem cells (hMSCs) to determine their ability to induce chondrogenesis (process by which cartilage is developed).
# Primary human mesenchymal stem cells (hMSCs) were purchased from Lonza (Walkersville, Md.) and expanded in Mesenchymal Stem Cell Growth Media (Lonza). Cells between passage 3 and 6 were used for the experiments.
# Each compound was dissolved in DMSO as a 10 mM stock and used to prepare compound source plates. Serial dilution (1:3, 6-point dose-response curves from 2700 nM to 10 nM) and compound transfer was performed using the ECHO 550 (Labcyte, Sunnyvale, Calif.) into 96-well clear bottom assay plates (Greiner Bio-One) with appropriate DMSO backfill for a final DMSO concentration of 0.03%. hMSCs were plated at 20,000 cells/well in 250 μL/well Incomplete Chondrogenic Induction Medium (Lonza; DMEM, dexamethasone, ascorbate, insulin-transferrin-selenium [ITS supplement], gentamycin-amphotericin [GA-1000], sodium pyruvate, proline and L-glutamine). TGF-β3 (10 ng/mL) was used as a positive control for differentiation while negative control wells were treated with 75 nL DMSO for normalization and calculating EC50 values. Cells were incubated at 37° C. and 5% CO2 for 6 days. To image chondrogenic nodules, the cells were fixed using 4% formaldehyde (Electron Microscopy Sciences), and stained with 2 μg/mL Rhodamine B (Sigma-Aldrich) and 20 μM Nile Red (Sigma-Aldrich) [Johnson K., et. al, A Stem Cell-Based Approach to Cartilage Repair, Science, (2012), 336(6082), 717-721]. The nodules imaged (4 images per well at 4× magnification) by excitation at 531 nm and emission at 625 nm and quantified using the CellInsight CX5 (Thermo Scientific). Number of nodules in each well was normalized to the average of 3 DMSO treated wells on the same plate using Excel (Microsoft Inc.). The normalized averages (fold change over DMSO) of 3 replicate wells for each compound concentration were calculated. Due to solubility limitations of some of the compounds, curve fitting was incomplete leading to inaccurate EC50 determinations.
# Using TGF-03 as a positive control, the concentration of test compounds required to induce equivalent levels of chondrogenesis is reported. In addition, the maximum activity of each compound and the respective dose that each compound reached maximum chondrogenesis activity is reported.
SMILES,EC50 (LL29 cells),IC50 [1],EC (100% TGF-beta3 activity) [2],Emax [2]
"CCNCc1cncc(-c2cc3c(-c4nc5c(-c6ccsc6)nccc5[nH]4)n[nH]c3cn2)c1 [Compound 266, N-((5-(3-(4-(Thiophen-3-yl)-1H-imidazo[4,5-c]pyridin-2-yl)-1H-pyrazolo[3,4-c]pyridin-5-yl)pyridin-3-yl)methyl)ethanamine]",≤ 9 nM,11.3 nM,67.7 nM,30%
"Nc1cncc(-c2cc3c(-c4nc5c(-c6ccccc6F)nccc5[nH]4)n[nH]c3cn2)c1 [Compound 55, 5-(3-(4-(2-Fluorophenyl)-1H-imidazo[4,5-c]pyridin-2-yl)-1H-pyrazolo[3,4-c]pyridin-5-yl)pyridin-3-amine]",≤ 9 nM,16.6 nM,145 nM,
"Cc1cn(-c2nccc3[nH]c(-c4n[nH]c5cnc(-c6cncc(NC(=O)C(C)(C)C)c6)cc45)nc23)cn1 [Compound 190, N-(5-(3-(4-(4-Methyl-1H-imidazol-1-yl)-1H-imidazo[4,5-c]pyridin-2-yl)-1H-pyrazolo[3,4-c]pyridin-5-yl)pyridin-3-yl)pivalamide]",,32.8 nM,71.8 nM,100%
"c1cncc(-c2cc3c(-c4nc5c(-c6cccnc6)nccc5[nH]4)n[nH]c3cn2)c1 [Compound 82, 5-(Pyridin-3-yl)-3-(4-(pyridin-3-yl)-1H-imidazo[4,5-c]pyridin-2-yl)-1H-pyrazolo[3,4-c]pyridine]",,1.7 nM,44.5 nM,
"CCC(=O)Nc1cncc(-c2cc3c(-c4nc5c(N6CCCCC6)nccc5[nH]4)n[nH]c3cn2)c1 [Compound 157, N-(5-(3-(4-(Piperidin-1-yl)-1H-imidazo[4,5-c]pyridin-2-yl)-1H-pyrazolo[3,4-c]pyridin-5-yl)pyridin-3-yl)propionamide]",347 nM,144 nM,,
"c1ccc(CNCc2cncc(-c3cc4c(-c5nc6c(-c7ccsc7)nccc6[nH]5)n[nH]c4cn3)c2)cc1 [Compound 283, N-Benzyl-1-(5-(3-(4-(thiophen-3-yl)-1H-imidazo[4,5-c]pyridin-2-yl)-1H-pyrazolo[3,4-c]pyridin-5-yl)pyridin-3-yl)methanamine]",≤ 9 nM,116 nM,,
"Fc1ccc(-c2nccc3[nH]c(-c4n[nH]c5cnc(-c6cncc(CN7CCCC7)c6)cc45)nc23)s1 [Compound 352, 3-(4-(5-Fluorothiophen-2-yl)-1H-imidazo[4,5-c]pyridin-2-yl)-5-(5-(pyrrolidin-1-ylmethyl)pyridin-3-yl)-1H-pyrazolo[3,4-c]pyridine]",≥ 9990 nM,100 nM,,
"CC(C)(C)C(=O)Nc1cncc(-c2cc3c(-c4nc5c(-c6ccccc6F)nccc5[nH]4)n[nH]c3cn2)c1 [Compound 60, N-(5-(3-(4-(2-Fluorophenyl)-1H-imidazo[4,5-c]pyridin-2-yl)-1H-pyrazolo[3,4-c]pyridin-5-yl)pyridin-3-yl)pivalamide]",878 nM,115 nM,,
"CC(=O)c1ccc(-c2nccc3[nH]c(-c4n[nH]c5cnc(-c6cncc(NC(=O)CC(C)(C)C)c6)cc45)nc23)s1 [Compound 406, N-(5-(3-(4-(5-Acetylthiophen-2-yl)-1H-imidazo[4,5-c]pyridin-2-yl)-1H-pyrazolo[3,4-c]pyridin-5-yl)pyridin-3-yl)-3,3-dimethylbutanamide]",≥ 9990 nM,1920 nM,,
"Fc1ccc(-c2nccc3[nH]c(-c4n[nH]c5cnc(-c6cncnc6)cc45)nc23)cc1 [Compound 52, 3-(4-(4-Fluorophenyl)-1H-imidazo[4,5-c]pyridin-2-yl)-5-(pyrimidin-5-yl)-1H-pyrazolo[3,4-c]pyridine]",44 nM,74.1 nM,,
"CC(C)(C)C(=O)Nc1cncc(-c2cc3c(-c4nc5c(-c6ccc(F)cc6)nccc5[nH]4)n[nH]c3cn2)c1 [Compound 34, N-(5-(3-(4-(4-Fluorophenyl)-1H-imidazo[4,5-c]pyridin-2-yl)-1H-pyrazolo[3,4-c]pyridin-5-yl)pyridin-3-yl)pivalamide]",515 nM,50.9 nM,,
"O=C(Nc1cncc(-c2cc3c(-c4nc5c(-c6ccc(F)cc6)nccc5[nH]4)n[nH]c3cn2)c1)C1CCC1 [Compound 46, N-(5-(3-(4-(4-Fluorophenyl)-1H-imidazo[4,5-c]pyridin-2-yl)-1H-pyrazolo[3,4-c]pyridin-5-yl)pyridin-3-yl)cyclobutanecarboxamide]",≤ 9 nM,61 nM,,
"Fc1cccc(-c2nccc3[nH]c(-c4n[nH]c5cnc(-c6cn[nH]c6)cc45)nc23)c1 [Compound 939, 3-(4-(3-Fluorophenyl)-1H-imidazo[4,5-c]pyridin-2-yl)-5-(1H-pyrazol-4-yl)-1H-pyrazolo[3,4-c]pyridine]",≤ 9 nM,1 nM,,
"CCCC(=O)Nc1cncc(-c2cc3c(-c4nc5c(-c6ccsc6)nccc5[nH]4)n[nH]c3cn2)c1 [Compound 277, N-(5-(3-(4-(Thiophen-3-yl)-1H-imidazo[4,5-c]pyridin-2-yl)-1H-pyrazolo[3,4-c]pyridin-5-yl)pyridin-3-yl)butyramide]",≤ 9 nM,71.5 nM,,
"CC(C)(C)C(=O)Nc1cncc(-c2cc3c(-c4nc5c(-c6ccsc6)nccc5[nH]4)n[nH]c3cn2)c1 [Compound 268, N-(5-(3-(4-(Thiophen-3-yl)-1H-imidazo[4,5-c]pyridin-2-yl)-1H-pyrazolo[3,4-c]pyridin-5-yl)pyridin-3-yl)pivalamide]",≥ 9990 nM,41.3 nM,,
"Fc1cccc(-c2nccc3[nH]c(-c4n[nH]c5cnc(C6CCNCC6)cc45)nc23)c1 [Compound 937, 3-(4-(3-Fluorophenyl)-1H-imidazo[4,5-c]pyridin-2-yl)-5-(piperidin-4-yl)-1H-pyrazolo[3,4-c]pyridine]",2610 nM,> 10000 nM,,
"Fc1cccc(-c2nccc3[nH]c(-c4n[nH]c5cnc(-c6ccccn6)cc45)nc23)c1 [Compound 953, 3-(4-(3-Fluorophenyl)-1H-imidazo[4,5-c]pyridin-2-yl)-5-(pyridin-2-yl)-1H-pyrazolo[3,4-c]pyridine]",1940 nM,320 nM,,
"O=C(Nc1cncc(-c2cc3c(-c4nc5c(-c6ccccn6)nccc5[nH]4)n[nH]c3cn2)c1)C1CCC1 [Compound 150, N-(5-(3-(4-(Pyridin-2-yl)-1H-imidazo[4,5-c]pyridin-2-yl)-1H-pyrazolo[3,4-c]pyridin-5-yl)pyridin-3-yl)cyclobutanecarboxamide]",1050 nM,71.5 nM,,
"CS(=O)(=O)NCc1cc(F)cc(-c2nccc3[nH]c(-c4n[nH]c5cnc(-c6cncc(CNCc7ccccc7)c6)cc45)nc23)c1 [Compound 439, N-(3-(2-(5-(5-((Benzylamino)methyl)pyridin-3-yl)-1H-pyrazolo[3,4-c]pyridin-3-yl)-1H-imidazo[4,5-c]pyridin-4-yl)-5-fluorobenzyl)methanesulfonamide]",≤ 9 nM,67.3 nM,,
"CCCC(=O)Nc1cncc(-c2cc3c(-c4nc5c(-c6cc(F)cc(CNS(C)(=O)=O)c6)nccc5[nH]4)n[nH]c3cn2)c1 [Compound 433, N-(5-(3-(4-(3-Fluoro-5-(methylsulfonamidomethyl)phenyl)-1H-imidazo[4,5-c]pyridin-2-yl)-1H-pyrazolo[3,4-c]pyridin-5-yl)pyridin-3-yl)butyramide]",195 nM,> 10000 nM,,
"Cc1ccc(-c2nccc3[nH]c(-c4n[nH]c5cnc(-c6cncc(NC(=O)C(C)C)c6)cc45)nc23)s1 [Compound 373, N-(5-(3-(4-(5-Methylthiophen-2-yl)-1H-imidazo[4,5-c]pyridin-2-yl)-1H-pyrazolo[3,4-c]pyridin-5-yl)pyridin-3-yl)isobutyramide]",≤ 9 nM,9.9 nM,,
